Laboratory results: patent US10117871B2, “3-hydroxypyrimidine-2,4-dione-5-carboxamides as potent inhibitors of HIV” (Regents of the University of Minnesota, priority 2015, dated 2018)
Read-outs that look alike come from different tables or passages of the source.

How the values were obtained:
CEM-SS cells = test: Compound cytotoxicity (MTS) in the HIV cytoprotection assay; type: cell-based; details: for Cell viability %: 10 μM, CEM-SS cells; for CC50: Concentration resulting in 50% cell death
Protocol: (§1) The antiviral activity of newly synthesized analogues of chemotype 7 was evaluated against HIV-1IIIB in CEM-SS cells using an assay based on viral cytopathic effect (CPE). In this assay, the reduction of CPE was used to indicate the antiviral activity of a compound.
Briefly virus and cells were mixed in the presence of test compound and incubated for 6 days. […] Each assay plate contained cell control wells (cells only), virus control wells (cells plus virus), compound toxicity control wells (cells plus compound only), compound colorimetric control wells (compound only) as well as experimental wells (compound plus cells plus virus). […] Each assay included AZT as a positive control.

HIV-1 integrase = molecular target: T1, HIV-1 integrase (Human immunodeficiency virus type 1 group M subtype B, UniProt P04585); test: HIV-1 integrase strand transfer (INST) assay; type: biochemical
T1 construct: HIV integrase was expressed and purified as previously reported; made in house; host or cells: Escherichia coli
Protocol: HIV integrase was expressed and purified as previously reported.^43 Inhibition assays were performed using a modified protocol of a reported method.^43 Briefly, 2.1 μL of compound suspended in DMSO was placed in duplicate into a Black 96 well non-binding plate (coming 3991). Compounds were plated in duplicate to a final concentration of 0.13-100 μM. To each well of the plate 186.9 μL of reaction mixture without DNA substrate was added (10 mM HEPES pH 7.5, 10% glycerol w/v, 10 mM MnCl2, 1 mM DTT, 1 μM integrase). The enzyme was incubated with inhibitor for 10 min at 25° C. after which the reaction was initiated by the addition of 21 μL of 500 nM oligo (5′ biotin […] annealed with […] 3′ Cy5). Reactions were incubated at 37° C. for 30 min and then quenched by the addition of 5.2 μL 500 mM EDTA. Each reaction was moved (200 μL) to a MultiScreen HTS PCR plate (Millipore MSSLBPC10) containing 20 μL streptavidin agarose beads (Life Technologies S951) and incubated with shaking for 30 min. A vacuum manifold was used to remove the reaction mixture and the beads were similarly washed 3 times with wash buffer (0.05% SDS, 1 mM EDTA in PBS). The plates were further washed 3 times with 200 μL 50 mM NaOH to denature DNA not covalently linked to the biotin modification. For each denaturation step the plate was incubated with shaking at 25° C. for 5 min and the NaOH was removed by centrifugation at 1000 g for 1 min. The reaction products were eluted from the beads by the addition of 150 μL formamide. The plate was incubated at 25° C. for 10 min and read directly at 635/675 in a SpectraMax i3 plate reader (Molecular Devices). Expression and purification of the recombinant IN in Escherichia coli were performed as previously reported^39, 44 with addition of 10% glycerol to all buffers. Preparation of oligonucleotide substrates has been described.^45 Integrase reactions were performed in 10 μL with 400 nM of recombinant IN, 20 nM of 5′-end [^32P]-labeled oligonucleotide substrate and inhibitors at various concentrations. Solutions of 10% DMSO without inhibitors were used as controls. Reactions were incubated at 37° C. (60 minutes) in buffer containing 50 mM MOPS, pH 7.2, 7.5 mM MgCl2, and 14.3 mM 2-mercaptoethanol. Reactions were stopped by addition of 10 μL of loading dye (10 mM EDTA, 98% deionized formamide, 0.025% xylene cyanol and 0.025% bromophenol blue). Reactions were then subjected to electrophoresis in 20% polyacrylamide-7 M urea gels. Gels were dried and reaction products were visualized and quantitated with a Typhoon 8600 (GE Healthcare, Little Chalfont, Buckinghamshire, UK). Densitometric analyses were performed using ImageQuant from Molecular Dynamics Inc. The concentrations at which enzyme activity was reduced by 50% (IC50) were determined using “Prism” software (GraphPad Software, San Diego, Calif.) for nonlinear regression to fit dose-response data to logistic curve models.

HIV-1IIIB = test: HIV-1 cytoprotection (CPE reduction) antiviral assay; type: cell-based; details: for inhibition at 10 µM: read-out: CPE reduction %; for antiviral activity, in words: single concentration 10 μM, CPE assay
Protocol: as §1
Briefly virus and cells were mixed in the presence of test compound and incubated for 6 days. […] Each assay plate contained cell control wells (cells only), virus control wells (cells plus virus), compound toxicity control wells (cells plus compound only), compound colorimetric control wells (compound only) as well as experimental wells (compound plus cells plus virus). Cytoprotection and compound cytotoxicity were assessed by MTS (CellTiter® 96 Reagent, Promega, Madison Wis.) and the EC50 (concentration inhibiting virus replication by 50%), CC50 (concentration resulting in 50% cell death) and a calculated TI (therapeutic index CC50/EC50) were provided. Each assay included AZT as a positive control.

[1] = Human immunodeficiency virus 1, 10 μM, HIV-1IIIB in CEM-SS cells
[2] = Human immunodeficiency virus 1, CEM-SS

SMILES	Cell viability % (CEM-SS cells)	IC50 (HIV-1 integrase; read-out: INST IC50)	inhibition at 10 µM (HIV-1IIIB; [1])	other results
CCCNc1[nH]c(=O)n(O)c(=O)c1C(=O)NCc1ccccc1 [Compound 7-vii, N-Benzyl-1-(hydroxy)-1,2,3,6-tetrahydro-2,6-dioxo-4-(propylamino)pyrimidine-5-carboxamide]	97%	66 ± 16 nM	100%	
CCNc1[nH]c(=O)n(OCc2ccccc2)c(=O)c1C(=O)N(C)Cc1ccc(F)cc1 [Compound 15, 3-(Benzyloxy)-6-(ethylamino)-N-(4-fluorobenzyl)-N-methyl-2,4-dioxo-1,2,3,4-tetrahydropyrimidine-5-carboxamide]		7000 ± 3300 nM		
O=C(NCc1ccc(F)cc1)c1c2n(c(=O)n(O)c1=O)CCCN2 [Compound 17, N-(4-Fluorobenzyl)-7-(hydroxy)-2,3,4,6,7,8-hexahydro-6,8-dioxo-1H-pyrimido[1,6-a]pyrimidine-9-carboxamide]		430 ± 130 nM		
CCNc1[nH]c(=O)n(O)c(=O)c1C(=O)NCc1ccc(F)c(F)c1 [Compound 7-xx, N-(3,4-Difluorobenzyl)-1-(hydroxy)-4-(ethylamino)-1,2,3,6-tetrahydro-2,6-dioxopyrimidine-5-carboxamide]	100%	77 ± 11 nM		CC50 (CEM-SS cells): 21000 nM; IC50 (HIV-1 integrase; read-out: IC50 (ST)): 21 to 77 nM; EC50 (HIV-1IIIB; Human immunodeficiency virus 1): 49 nM; inhibition at 10 µM (HIV-1IIIB; [2]): 100%; EC50 (HIV-1IIIB; Human immunodeficiency virus 1, summary of Table 2, read-out: EC50): 15 to 61 nM
CCNc1[nH]c(=O)n(O)c(=O)c1C(=O)NCc1ccc(C)c(F)c1 [Compound 7-xxiv, N-(3-Fluoro-4-methylbenzyl)-1-(hydroxy)-4-(ethylamino)-1,2,3,6-tetrahydro-2,6-dioxopyrimidine-5-carboxamide]	100%	51 ± 13 nM	100%	CC50 (CEM-SS cells): 20000 nM; EC50 (HIV-1IIIB; Human immunodeficiency virus 1): 150 nM
CCNc1[nH]c(=O)n(O)c(=O)c1C(=O)NCCCl [Compound 7-xxvii, 1-(Hydroxy)-N-(2-chloroethyl)-4-(ethylamino)-1,2,3,6-tetrahydro-2,6-dioxopyrimidine-5-carboxamide]	100%			inhibition of ST in the ST assay, in words (HIV-1 integrase): none; inhibition at 10 µM (HIV-1IIIB; [2]): 5.1%; antiviral activity, in words (HIV-1IIIB): completely abrogated antiviral activity
CNc1[nH]c(=O)n(O)c(=O)c1C(=O)NCc1ccccc1 [Compound 7-v, N-Benzyl-1-(hydroxy)-1,2,3,6-tetrahydro-4-(methylamino)-2,6 dioxopyrimidine-5-carboxamide]	98%	80 ± 7 nM	100%	CC50 (CEM-SS cells): 58000 nM; EC50 (HIV-1IIIB; Human immunodeficiency virus 1): 830 nM
CCNc1[nH]c(=O)n(O)c(=O)c1C(=O)NCc1cc(F)ccc1Cl [Compound 7-xxi, N-(2-Chloro-5-fluorobenzyl)-1-(hydroxy)-4-(ethylamino)-1,2,3,6-tetrahydro-2,6-dioxopyrimidine-5-carboxamide]	73%	95 ± 19 nM	62%	
CC(C)Nc1[nH]c(=O)n(O)c(=O)c1C(=O)NCc1ccccc1 [Compound 7-viii, N-Benzyl-1-(hydroxy)-1,2,3,6-tetrahydro-4-(isopropylamino)-2,6-dioxopyrimidine-5-carboxamide]	17%	150 ± 34 nM	0%	cytotoxicity, in words (CEM-SS cells; single concentration 10 μM): cytotoxic; antiviral activity, in words (HIV-1IIIB): inactive
CCNc1[nH]c(=O)n(O)c(=O)c1C(=O)NCc1ccc(F)cc1F [Compound 7-xviii, N-(2,4-Difluorobenzyl)-1-(hydroxy)-4-(ethylamino)-1,2,3,6-tetrahydro-2,6-dioxopyrimidine-5-carboxamide]	87%	48 ± 7 nM	92%	
O=C(NCc1ccc(F)cc1)c1c(Nc2ccc(-c3ccccc3)cc2)[nH]c(=O)n(O)c1=O [Compound 7-iv, N-(4-Fluorobenzyl)-1-(hydroxy)-1,2,3,6-tetrahydro-2,6-dioxo-4-(biphenylamino)pyrimidine-5-carboxamide]	9.1%	> 100000 nM	0%	
CNc1[nH]c(=O)n(O)c(=O)c1C(=O)NCc1cccc(Cl)c1F [Compound 7-xiv, N-(3-Chloro-2-fluorobenzyl)-1-(hydroxy)-1,2,3,6-tetrahydro-4-(methylamino)-2,6-dioxopyrimidine-5-carboxamide]	100%	110 ± 33 nM	100%	
Nc1[nH]c(=O)n(O)c(=O)c1C(=O)NCc1ccccc1 [Compound 7-xi, 4-Amino-N-benzyl-1-(hydroxy)-1,2,3,6-tetrahydro-2,6-dioxopyrimidine-5-carboxamide]	100%	900 ± 290 nM	99%	
O=C(NCc1ccccc1)c1c(Nc2ccc(-c3ccccc3)cc2)[nH]c(=O)n(O)c1=O [Compound 7-ii, N-Benzyl-1-(hydroxy)-1,2,3,6-tetrahydro-2,6-dioxo-4-(biphenylamino)pyrimidine-5-carboxamide]	13%			inhibition at 10 µM (HIV-1IIIB; [2]): 0%
O=C(NCc1ccccc1)c1c(Nc2ccccc2)[nH]c(=O)n(O)c1=O [Compound 7-i, N-Benzyl-1-(hydroxy)-1,2,3,6-tetrahydro-2,6-dioxo-4-(phenylamino)pyrimidine-5-carboxamide]	21%			inhibition at 10 µM (HIV-1IIIB; [2]): 0%
CNc1[nH]c(=O)n(O)c(=O)c1C(=O)NCc1ccc(F)cc1 [Compound 7-xiii, N-(4-Fluorobenzyl)-1-(hydroxy)-1,2,3,6-tetrahydro-4-(methylamino)-2,6-dioxopyrimidine-5-carboxamide]	89%	110 ± 21 nM	100%	
O=C(NCc1ccccc1)c1c(NC2CC2)[nH]c(=O)n(O)c1=O [Compound 7-ix, N-Benzyl-1-(hydroxy)-4-(cyclopropylamino)-1,2,3,6-tetrahydro-2,6-dioxopyrimidine-5-carboxamide]	90%	209 ± 77 nM	98%	
O=C(NCc1cccc(F)c1)c1c(Nc2ccc(-c3ccccc3)cc2)[nH]c(=O)n(O)c1=O [Compound 7-iii, N-(3-Fluorobenzyl)-1-(hydroxy)-1,2,3,6-tetrahydro-2,6-dioxo-4-(biphenylamino)pyrimidine-5-carboxamide]	8.7%	> 100000 nM	0%	
CCCNc1[nH]c(=O)n(O)c(=O)c1C(=O)NCc1cccc(Cl)c1F [Compound 7-xxviii, N-(3-Chloro-2-fluorobenzyl)-1-(hydroxy)-1,2,3,6-tetrahydro-2,6-dioxo-4-(propylamino)pyrimidine-5-carboxamide]	48%		33%	
O=C(NCc1ccccc1)c1c(O)n(O)c(=O)[nH]c1=O [Compound 16, N-Benzyl-1,6-dihydroxy-2,4-dioxo-1,2,3,4-tetrahydropyrimidine-5-carboxamide]		37000 ± 21000 nM		
